Measurements reported in patent US10294228B2, “Breathing control modulating compounds, and methods of making and using same” (NEURAD LTD., priority 2015, dated 2019).
Structures can show the parent of a compound that is named as a salt.

How the values were obtained:
[1] = tested on: rats with evoked obstructions; assay: Evoked obstructive apnea model; type: in vivo, rat
Description: (§1) Two rodent models of obstructive apnea were used: one that modeled spontaneous obstructions (spontaneous obstructive apnea model) which become progressively worse over time, and another (evoked obstructive apnea model) where the investigator retained control over the variables that define OSA severity, such as apnea frequency (f OA) and apnea duration (OA t).
(§2) All animal experiments were performed according to protocols approved by the Institutional Animal Care and Use Committee (IACUC) at Galleon Pharmaceuticals, Inc. All experimental procedures were performed under general anesthesia. All experiments were non-survival procedures and animals were euthanized at the conclusion of the experiment prior to the animal recovering from anesthesia. Two rodent models of obstructive apnea were used, one that modeled spontaneous obstructions that become progressively worse over time (Spontaneous Obstructive Apnea Model), and another where the investigator retained control over the parameters that defined OSA severity, such as f OA, and OA t, and by controlling these directly also controlling of the magnitude of oxy-hemoglobin desaturation (Evoked Obstructive Apnea Model).

[2] = tested on: anesthetized rats; assay: Anesthetized rat spirometry screening assay (ventilatory activity, minute volume); type: in vivo; settings: 0.3 mg/kg IV bolus, increase in minute volume (VE), read-out: VE % Inc @ 0.3 mg/kg IV
Summary of the method: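 Urethane-anesthetized (1.5 g/kg i.v.) rats with tracheal cannula to pneumotachometer; minute volume derived from respiratory rate × tidal volume. Compounds given as i.v. bolus at 0.1 and/or 0.3 and/or 3 mg/kg, monitored at least 6 min; data as 30 s averages.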

[3] = tested on: anesthetized supine rats with spontaneous obstructive apneas; assay: Spontaneous obstructive apnea model; type: in vivo, rat
Description: as §1
The majority of studies were conducted using the spontaneous obstructive apnea model, where rats were positioned in dorsal recumbency (supine), and permitted to breathe spontaneously on room air. Air flow was measured continuously by whole-body plethysmography. […] OA were defined as periods of no air flow for more than 2 respiratory cycles accompanied by efforts to breathe (e.g., increased transthoracic esophageal inspiratory pressure). After neck flexion, eupnea became increasingly interrupted by clusters of upper airway obstructions (f OA 30±3 hr^−1 (mean±SEM), range: 13 to 94 hr^−1; OA t 11±3 s, range: 6 to 15 s). OA severity was further quantified by the peak change in hemoglobin oxygen saturation during an obstruction (ΔSpO2: −20±1%, range: −11 to −31%). Clustered OAs were often separated by long periods of eupneic breathing, which presumably returned when activation of a relevant afferent/effector reflex (e.g., chemoreceptor driven increased motor drive to the genioglossus muscle) reached a threshold necessary to reestablish a patent upper airway.
as §2
Rats were initially anesthetized in a rodent anesthesia induction chamber using 3% (dial setting) isoflurane in 97% oxygen (O2) for surgical instrumentation. When rats had become recumbent they were removed from the chamber and placed in dorsal recumbency (supine) on a heating pad. Anesthesia was maintained with 2% isoflurane in 98% oxygen and rats were permitted to breathe spontaneously on room air. After instrumentation, isoflurane was slowly discontinued and urethane (1.5 to 1.8 g/kg, IV) administered to maintain anesthesia without interruption. Supplemental oxygen was discontinued at this time.
The femoral artery was cannulated to permit continuous recording of arterial blood pressure and intermittent sampling of blood for pH and blood gas analyses, and single time point quantification of test article plasma concentrations. The femoral vein was cannulated to permit test compound administration and fluid support. The arterial cannula was connected to a heparinized saline filled pressure transducer. The arterial pressure waveforms were sampled at 2K/second and band-pass filtered between 0-1000 Hz. […]

CCCNc1nc(NC)nc2c(NCC(C)(C)O)nc(NC)nc12 [Compound 31a, 1-(2,6-Bis-methylamino-8-propylamino-pyrimido[5,4-d]pyrimidin-4-ylamino)-2-methyl-propan-2-ol Hydrochloride]
airway (genioglossus, or GG) responses to evoked obstructions ([1]; rats, IV infusion MD 0.008 mg/kg/min 15 min then 0.002 mg/kg/min 45 min, HD 0.024 then 0.006 mg/kg/min, FIG. 21A): increases | diaphragm (DIA) responses to evoked obstructions ([1]; same rats and infusions as FIG. 21A, FIG. 21B): insignificant increases | change in vivo at 0.3 mg/kg [2]: 69% | SpO2 desaturations ([3]; FIG. 18, model not named in the legend): reduction | frequency of obstructive apneas (OA) ([3]; FIG. 19, model not named in the legend): reduction | arterial oxygen content deficit ([3]; FIG. 20, model not named in the legend): reduction | upper airway (total genioglossus EMG amplitude) response to spontaneous obstructive apneas ([3]; FIG. 22): increase | upper airway response (genioglossus activity) to spontaneous obstructive apneas ([3]; IV infusion, FIG. 23): dose-dependently increases
